Test results taken from the supplement of paper PMC11061612.

Tests used:
Assay in all cases: combination Emax (second highest fraction inhibited in the dose matrix, 72 h); higher = more inhibition; extreme values may be limits of the assay
[1] = system: NCI-H2052 (Mesothelioma)
In short: (§1)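 Bliss excess equals the observed combination effect minus the expected value EA + EB − EA·EB, where EA and EB are the effects of each agent alone. Combination Emax is the second-highest inhibition within the matrix. Inhibition was scaled from CellTiter-Glo 2.0 luminescence, with 0 set by vehicle wells and 1 by blank wells, after 72 hours of two-drug dosing of cells plated in 1536-well plates.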

[2] = system: FTC-133 (Thyroid Gland Carcinoma)
In short: as §1

[3] = system: BFTC-909 (Kidney Carcinoma)
In short: as §1

[4] = system: SW1573 (Lung Adenocarcinoma)
In short: as §1

[5] = system: KMRC-20 (Kidney Carcinoma)
In short: as §1

[6] = system: YAPC (Pancreatic Carcinoma)
In short: as §1

[7] = system: HuCCT1 (Biliary Tract Carcinoma)
In short: as §1

[8] = system: EW-11 (Ewing's Sarcoma)
In short: as §1

[9] = system: NCI-H2722 (Mesothelioma)
In short: as §1

[10] = system: LOXIMVI (Melanoma)
In short: as §1

[11] = system: HeLa (Cervical Carcinoma)
In short: as §1

[12] = system: MPP-89 (Mesothelioma)
In short: as §1

[13] = system: Detroit562 (Head and Neck Carcinoma)
In short: as §1

[14] = system: Hs-746T (Gastric Carcinoma)
In short: as §1

[15] = system: SW1710 (Bladder Carcinoma)
In short: as §1

[16] = system: L-428 (Hodgkin's Lymphoma)
In short: as §1

[17] = system: NCI-H1568 (Lung Adenocarcinoma)
In short: as §1

[18] = system: SNU-16 (Gastric Carcinoma)
In short: as §1

[19] = system: KYAE-1 (Esophageal Adenocarcinoma)
In short: as §1

[20] = system: WSU-NHL (B-Cell Non-Hodgkin's Lymphoma)
In short: as §1

| Structure (SMILES) | combination Emax [1] | combination Emax [2] | combination Emax [3] | combination Emax [4] | combination Emax [5] | combination Emax [6] | combination Emax [7] | combination Emax [8] | combination Emax [9] | combination Emax [10] | combination Emax [11] | combination Emax [12] | combination Emax [13] | combination Emax [14] | combination Emax [15] | combination Emax [16] | combination Emax [17] | combination Emax [18] | combination Emax [19] | combination Emax [20] |
| --- | --- | --- | --- | --- | --- | --- | --- | --- | --- | --- | --- | --- | --- | --- | --- | --- | --- | --- | --- | --- |
| CN(CCO)CC[C@H](CSc1ccccc1)Nc1ccc(S(=O)(=O)NC(=O)c2ccc(N3CCC([C@@H](O)c4ccccc4-c4ccc(Cl)cc4)CC3)cc2)cc1S(=O)(=O)C(F)(F)F [AZD4320] + Cc1cc2ncnn2cc1Nc1ncc2c(n1)n(C1CCOCC1)c(=O)n2C [AZD7648] (first compound max 1 µM, 7x7, partner max 10 µM) | 0.245 | 0.491 | 0.246 | 0.104 | 0.157 | 0.103 | 0.26 | 0.829 | 0.159 | 0.343 | 0.0576 | 0.281 | 0.22 | 0.347 | 0.131 | 0.844 | 0.22 | 0.3 | 0.279 | 0.86 |
| COc1nnc2ccc(N3CCC(c4ccc(OCCN5CCN(C)C(=O)[C@H]5C)cc4)CC3)nn12 [AZD5153] + CN(CC[C@H](CSC1=CC=CC=C1)NC2=C(C=C(C=C2)S(=O)(=O)NC(=O)C3=CC=C(C=C3)N4CCC(CC4)[C@H](C5=CC=CC=C5C6=CC=C(C=C6)Cl)O)S(=O)(=O)C(F)(F)F)CCO [AZD4320] (first compound max 1 µM, 7x7, partner max 1 µM) | 0.189 | 0.909 | 0.71 | 0.61 | 0.545 |  |  |  | 0.774 |  | 0.433 |  | 0.942 | 0.557 |  | 0.943 | 0.266 |  |  |  |
| Cc1cc2ncnn2cc1Nc1ncc2c(n1)n(C1CCOCC1)c(=O)n2C [AZD7648] + C=CCn1c(=O)c2cnc(Nc3ccc(N4CCN(C)CC4)cc3)nc2n1-c1cccc(C(C)(C)O)n1 [AZD1775] (first compound max 10 µM, partner max 1 µM) | 0.512 | 0.633 | 0.619 | 0.328 | 0.53 | 0.533 | 0.692 | 0.599 | 0.327 | 0.668 | 0.636 | 0.559 | 0.704 | 0.652 | 0.408 | 0.884 | 0.453 | 0.885 | 0.574 | 1 |
| Cc1cc2ncnn2cc1Nc1ncc2c(n1)n(C1CCOCC1)c(=O)n2C [AZD7648] + CCN(CCO)CCCOc1ccc2c(Nc3cc(CC(=O)Nc4cccc(F)c4)[nH]n3)ncnc2c1 [AZD2811] (first compound max 10 µM, 7x7, partner max 1 µM) | 0.382 | 0.354 | 0.384 | 0.287 | 0.275 | 0.271 | 0.406 | 0.507 | 0.291 | 0.449 | 0.285 | 0.258 | 0.829 | 0.386 | 0.202 | 0.347 | 0.185 | 0.569 | 0.207 | 0.976 |
| Cc1cc2ncnn2cc1Nc1ncc2c(n1)n(C1CCOCC1)c(=O)n2C [AZD7648] + CN(C)CCCOc1ccc(-c2ccc3ncc4c(c3c2)n(C2CCOCC2)c(=O)n4C)cn1 [AZD0156] (first compound max 10 µM, 7x7, partner max 1 µM) | 0.428 | 0.241 | 0.338 | 0.164 | 0.201 | 0.209 | 0.389 | 0.549 | 0.209 | 0.478 | 0.204 | 0.302 | 0.419 | 0.36 | 0.217 | 0.37 | 0.24 | 0.239 | 0.121 | 0.498 |
| Cc1cc2ncnn2cc1Nc1ncc2c(n1)n(C1CCOCC1)c(=O)n2C [AZD7648] + C[C@@H]1COCCN1C2=NC(=NC(=C2)C3(CC3)[S@](=N)(=O)C)C4=C5C=CNC5=NC=C4 [AZD6738] (first compound max 10 µM, 7x7, partner max 10 µM) | 0.413 | 0.677 | 0.835 | 0.229 | 0.425 | 0.335 | 0.735 | 0.748 | 0.347 | 0.768 | 0.575 | 0.564 | 0.848 | 0.677 | 0.503 | 0.794 | 0.499 | 0.984 | 0.204 | 1 |
